Experiments:
[1] = test system: dopaminergic (DA) receptors; conditions: background statement; cited from earlier work
[2] = test system: patients with negative symptoms of schizophrenia; assay: Integrated analysis (pooled ITT): CGI-S and CGI-I; format: in vivo, human; conditions: for CGI-I Score, Difference (95% CI) in LS mean (vs placebo) / CGI-I Score, LS mean (SE) / CGI-I Score, Mean (SD) / CGI-I Score, Median / CGI-S Score change from Baseline, LS mean (SE) / CGI-S Score change from Baseline, Mean (SD) / CGI-S Score change from Baseline, Median / CGI-S Score, Difference (95% CI) in LS mean (vs placebo): DB; for CGI-I Score, Difference (95% CI) in LS mean (vs placebo) / CGI-I Score, LS mean (SE) / CGI-I Score, Mean (SD) / CGI-I Score, Median / CGI-S Score change from Baseline, LS mean (SE) / CGI-S Score change from Baseline, Mean (SD) / CGI-S Score change from Baseline, Median / CGI-S Score, Difference (95% CI) in LS mean (vs placebo) / CGI-I score, LS mean compared with placebo / CGI-S score, LS mean change from Baseline compared with placebo: pooled ITT; for Clinical Global Impression of Severity, Change from Baseline (LS Means [SEM]) / Clinical Global Impression of Improvement (LS Means [SEM]): ITT; for Clinical Global Impression of Improvement (LS Means [SEM]): observed data, MMRM with Baseline CGI-S as covariate
Source text: The primary integrated analysis of the efficacy of Roluperidone compared with placebo for the treatment of negative symptoms of schizophrenia is based on the change from Baseline in the PANSS Marder's negative symptoms factor score (in this document referred to as NSFS) to Week 12. Efficacy is also supported by the analysis of change from Baseline in the PSP Total score and the CGI-S to Week 12.
The CGI-S is a clinician-rated scale that is designed to rate the severity of the patient's illness at the time of assessment, including knowledge of the patient's history, psychosocial circumstances, symptoms, behavior, and the impact of the symptoms on the patient's ability to function relative to the clinician's past experience with patients who have the same diagnosis and similar improvement with treatment. Considering total clinical experience, a patient is assessed on severity of mental illness at the time of rating, where 1=normal (not at all ill); 2=borderline mentally ill; 3=mildly ill; 4=moderately ill; 5=markedly ill; 6=severely ill; or 7=extremely ill.
The Efficacy data from Study Nos. 1 and 2 were pooled. The majority of patients in the pooled ITT population completed the DB period (502 patients overall, 66.3%), with similar rates in each treatment group (placebo: 69.8%, 32 mg Roluperidone: 65.3%, and 64 mg Roluperidone: 63.8%) (Table 12). The majority (62.7%) of those who completed the DB period entered the OL period. The most common reason for discontinuation during the DB period among patients overall was withdrawal of consent (15.6%), followed by adverse events (7.3%) and lack of efficacy (5.4%) (Table 12). […] Approximately twice as many patients in the Roluperidone groups (32 mg: 8.5%; 64 mg: 9.1%) discontinued due to adverse events compared with patients in the placebo group (4.3%). More patients in the placebo group discontinued due to lack of efficacy (6.7%) than in the Roluperidone groups (32 mg: 4.4%; 64 mg: 5.1%). The low number of patients who discontinued due to lack of efficacy or withdrawal of consent probably reflects a low level of worsening of positive symptoms.
The integrated analysis supporting the efficacy of Roluperidone as a treatment for the negative symptoms of schizophrenia in adults is presented below.

[3] = test system: muscarinic receptors; conditions: background statement; cited from earlier work
[4] = molecular target: serotoninergic 5-HT2A (Homo sapiens, UniProt P28223); conditions: background statement; cited from earlier work
serotoninergic 5-HT2A, sequence (P28223 whole entry): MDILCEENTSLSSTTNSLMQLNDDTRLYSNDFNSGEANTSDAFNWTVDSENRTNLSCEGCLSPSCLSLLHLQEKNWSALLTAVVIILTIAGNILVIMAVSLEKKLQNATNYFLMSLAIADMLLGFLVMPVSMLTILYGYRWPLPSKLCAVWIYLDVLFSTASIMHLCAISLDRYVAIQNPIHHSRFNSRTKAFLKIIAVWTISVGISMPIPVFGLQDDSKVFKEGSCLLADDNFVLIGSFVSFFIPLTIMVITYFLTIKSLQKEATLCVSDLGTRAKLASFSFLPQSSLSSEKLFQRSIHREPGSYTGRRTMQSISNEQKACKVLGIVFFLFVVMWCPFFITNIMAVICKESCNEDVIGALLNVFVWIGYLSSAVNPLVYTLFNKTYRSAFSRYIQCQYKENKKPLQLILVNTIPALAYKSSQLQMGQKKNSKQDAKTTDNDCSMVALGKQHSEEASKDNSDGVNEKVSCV

Question: What does the source list for “1H-Isoindol-1-one,2-[ [1-[2-(4-fluorophenyl)-2-oxoethyl]-4-piperidinyl]methyl]-2,3-dihydro-, hydrochloride, hydrate (1:1:2) [Roluperidone]”?
Answer: Affinity [1]: very low or no affinity; CGI-I Score, Difference (95% CI) in LS mean (vs placebo) ([2]; 32 mg, Week 2): 0.0; CGI-I Score, LS mean (SE) ([2]; 32 mg, Week 2): 3.9 (0.05); CGI-I Score, Mean (SD) ([2]; 32 mg, Week 2): 3.9 (0.68); CGI-I Score, Median ([2]; 32 mg, Week 2): 4.0; CGI-S Score change from Baseline, LS mean (SE) ([2]; 32 mg, Week 2): −0.1 (0.04); CGI-S Score change from Baseline, Mean (SD) ([2]; 32 mg, Week 2): −0.1 (0.47); CGI-S Score change from Baseline, Median ([2]; 32 mg, Week 2): 0.0; CGI-S Score, Difference (95% CI) in LS mean (vs placebo) ([2]; 32 mg, Week 2): 0.0; CGI-I Score, Difference (95% CI) in LS mean (vs placebo) ([2]; 32 mg, Week 4): −0.2; CGI-I Score, LS mean (SE) ([2]; 32 mg, Week 4): 3.6 (0.05); CGI-I Score, Mean (SD) ([2]; 32 mg, Week 4): 3.6 (0.76); CGI-I Score, Median ([2]; 32 mg, Week 4): 4.0; CGI-S Score change from Baseline, LS mean (SE) ([2]; 32 mg, Week 4): −0.1 (0.03); CGI-S Score change from Baseline, Mean (SD) ([2]; 32 mg, Week 4): −0.1 (0.50); CGI-S Score change from Baseline, Median ([2]; 32 mg, Week 4): 0.0; CGI-S Score, Difference (95% CI) in LS mean (vs placebo) ([2]; 32 mg, Week 4): −0.1; CGI-I Score, Difference (95% CI) in LS mean (vs placebo) ([2]; 32 mg, Week 8): −0.1; CGI-I Score, LS mean (SE) ([2]; 32 mg, Week 8): 3.5 (0.06); CGI-I Score, Mean (SD) ([2]; 32 mg, Week 8): 3.4 (0.80); CGI-I Score, Median ([2]; 32 mg, Week 8): 3.0; CGI-S Score change from Baseline, LS mean (SE) ([2]; 32 mg, Week 8): −0.2 (0.04); CGI-S Score change from Baseline, Mean (SD) ([2]; 32 mg, Week 8): −0.3 (0.58); CGI-S Score change from Baseline, Median ([2]; 32 mg, Week 8): 0.0; CGI-S Score, Difference (95% CI) in LS mean (vs placebo) ([2]; 32 mg, Week 8): −0.1; CGI-I Score, Difference (95% CI) in LS mean (vs placebo) ([2]; 32 mg, Week 12): −0.0; CGI-I Score, LS mean (SE) ([2]; 32 mg, Week 12): 3.5 (0.07); CGI-I Score, Mean (SD) ([2]; 32 mg, Week 12): 3.4 (0.82); CGI-I Score, Median ([2]; 32 mg, Week 12): 3.0; CGI-S Score change from Baseline, LS mean (SE) ([2]; 32 mg, Week 12): −0.3 (0.05); CGI-S Score change from Baseline, Mean (SD) ([2]; 32 mg, Week 12): −0.4 (0.65); CGI-S Score change from Baseline, Median ([2]; 32 mg, Week 12): 0.0; CGI-S Score, Difference (95% CI) in LS mean (vs placebo) ([2]; 32 mg, Week 12): −0.1; Clinical Global Impression of Severity, Change from Baseline (LS Means [SEM]) ([2]; 32 mg, Week 12): −0.3 (0.05); Clinical Global Impression of Improvement (LS Means [SEM]) ([2]; 32 mg, Week 12): 3.5 (0.07); CGI-I score, LS mean compared with placebo ([2]; 32 mg, Week 12): −0.0; CGI-S score, LS mean change from Baseline compared with placebo ([2]; 32 mg, Week 12): −0.1; CGI-I Score, Difference (95% CI) in LS mean (vs placebo) ([2]; 64 mg, Week 2): 0.0; CGI-I Score, LS mean (SE) ([2]; 64 mg, Week 2): 3.8 (0.05); CGI-I Score, Mean (SD) ([2]; 64 mg, Week 2): 3.8 (0.74); CGI-I Score, Median ([2]; 64 mg, Week 2): 4.0; CGI-S Score change from Baseline, LS mean (SE) ([2]; 64 mg, Week 2): −0.1 (0.04); CGI-S Score change from Baseline, Mean (SD) ([2]; 64 mg, Week 2): −0.1 (0.55); CGI-S Score change from Baseline, Median ([2]; 64 mg, Week 2): 0.0; CGI-S Score, Difference (95% CI) in LS mean (vs placebo) ([2]; 64 mg, Week 2): −0.0; CGI-I Score, Difference (95% CI) in LS mean (vs placebo) ([2]; 64 mg, Week 4): −0.2; CGI-I Score, LS mean (SE) ([2]; 64 mg, Week 4): 3.6 (0.05); CGI-I Score, Mean (SD) ([2]; 64 mg, Week 4): 3.5 (0.72); CGI-I Score, Median ([2]; 64 mg, Week 4): 4.0; CGI-S Score change from Baseline, LS mean (SE) ([2]; 64 mg, Week 4): −0.2 (0.03); CGI-S Score change from Baseline, Mean (SD) ([2]; 64 mg, Week 4): −0.3 (0.56); CGI-S Score change from Baseline, Median ([2]; 64 mg, Week 4): 0.0; CGI-S Score, Difference (95% CI) in LS mean (vs placebo) ([2]; 64 mg, Week 4): −0.2; CGI-I Score, Difference (95% CI) in LS mean (vs placebo) ([2]; 64 mg, Week 8): −0.2; CGI-I Score, LS mean (SE) ([2]; 64 mg, Week 8): 3.4 (0.06); CGI-I Score, Mean (SD) ([2]; 64 mg, Week 8): 3.4 (0.81); CGI-I Score, Median ([2]; 64 mg, Week 8): 3.0; CGI-S Score change from Baseline, LS mean (SE) ([2]; 64 mg, Week 8): −0.3 (0.04); CGI-S Score change from Baseline, Mean (SD) ([2]; 64 mg, Week 8): −0.3 (0.66); CGI-S Score change from Baseline, Median ([2]; 64 mg, Week 8): 0.0; CGI-S Score, Difference (95% CI) in LS mean (vs placebo) ([2]; 64 mg, Week 8): −0.2; CGI-I Score, Difference (95% CI) in LS mean (vs placebo) ([2]; 64 mg, Week 12): −0.2; CGI-I Score, LS mean (SE) ([2]; 64 mg, Week 12): 3.4 (0.07); CGI-I Score, Mean (SD) ([2]; 64 mg, Week 12): 3.3 (0.85); CGI-I Score, Median ([2]; 64 mg, Week 12): 3.0; CGI-S Score change from Baseline, LS mean (SE) ([2]; 64 mg, Week 12): −0.4 (0.05); CGI-S Score change from Baseline, Mean (SD) ([2]; 64 mg, Week 12): −0.4 (0.69); CGI-S Score change from Baseline, Median ([2]; 64 mg, Week 12): 0.0; CGI-S Score, Difference (95% CI) in LS mean (vs placebo) ([2]; 64 mg, Week 12): −0.2; Clinical Global Impression of Severity, Change from Baseline (LS Means [SEM]) ([2]; 64 mg, Week 12): −0.4 (0.05); Clinical Global Impression of Improvement (LS Means [SEM]) ([2]; 64 mg, Week 12): 3.4 (0.07); CGI-I score, LS mean compared with placebo ([2]; 64 mg, Week 12): −0.2; CGI-S score, LS mean change from Baseline compared with placebo ([2]; 64 mg, Week 12): −0.2; CGI-I Score, Mean (SD) ([2]; Roluperidone Total, Week 2): 3.9 (0.71); CGI-I Score, Median ([2]; Roluperidone Total, Week 2): 4.0; CGI-S Score change from Baseline, Mean (SD) ([2]; Roluperidone Total, Week 2): −0.1 (0.51); CGI-S Score change from Baseline, Median ([2]; Roluperidone Total, Week 2): 0.0; CGI-I Score, Mean (SD) ([2]; Roluperidone Total, Week 4): 3.6 (0.74); CGI-I Score, Median ([2]; Roluperidone Total, Week 4): 4.0; CGI-S Score change from Baseline, Mean (SD) ([2]; Roluperidone Total, Week 4): −0.2 (0.54); CGI-S Score change from Baseline, Median ([2]; Roluperidone Total, Week 4): 0.0; CGI-I Score, Mean (SD) ([2]; Roluperidone Total, Week 8): 3.4 (0.81); CGI-I Score, Median ([2]; Roluperidone Total, Week 8): 3.0; CGI-S Score change from Baseline, Mean (SD) ([2]; Roluperidone Total, Week 8): −0.3 (0.62); CGI-S Score change from Baseline, Median ([2]; Roluperidone Total, Week 8): 0.0; CGI-I Score, Mean (SD) ([2]; Roluperidone Total, Week 12): 3.3 (0.83); CGI-I Score, Median ([2]; Roluperidone Total, Week 12): 3.0; CGI-S Score change from Baseline, Mean (SD) ([2]; Roluperidone Total, Week 12): −0.4 (0.67); CGI-S Score change from Baseline, Median ([2]; Roluperidone Total, Week 12): 0.0; Affinity [3]: very low or no affinity; Antagonistic activity [4]: antagonistic activities
